Assay: activity coefficient (dimensionless); of the first substance listed, at infinite dilution; xn = mol fraction of the nth substance listed
Details: 101 kPa, Liquid, Chromatography, x1 = 0

CO [methanol] + CC[n+]1ccccc1.O=S(=O)([N-]S(=O)(=O)C(F)(F)F)C(F)(F)F
Details | activity coefficient
302.5 K | 1.86
313.1 K | 1.69
323 K | 1.53
332.9 K | 1.38
342.9 K | 1.26
353 K | 1.13

Cc1ccccc1C [1,2-dimethylbenzene] + CCCC[n+]1ccccc1.O=S(=O)([N-]S(=O)(=O)C(F)(F)F)C(F)(F)F
Details | activity coefficient
302.8 K | 2.22
312.5 K | 2.25
323.3 K | 2.26
333.3 K | 2.28
343.2 K | 2.28
353.2 K | 2.3

CCc1ccccc1 [ethylbenzene] + CCCCC[n+]1ccccc1.O=S(=O)([N-]S(=O)(=O)C(F)(F)F)C(F)(F)F
Details | activity coefficient
303.1 K | 1.93
312.8 K | 1.95
323.4 K | 1.96
333.4 K | 1.98
343.3 K | 1.99
353.5 K | 2

CCCO [propan-1-ol] + CCCC[n+]1ccccc1.O=S(=O)([N-]S(=O)(=O)C(F)(F)F)C(F)(F)F
Details | activity coefficient
303.4 K | 3.31
313.3 K | 2.82
323.2 K | 2.52
333.1 K | 2.25
343.1 K | 2.03
353 K | 1.84

CCO [ethanol] + CC[n+]1ccccc1.O=S(=O)([N-]S(=O)(=O)C(F)(F)F)C(F)(F)F
Details | activity coefficient
302.5 K | 2.63
313.1 K | 2.36
323 K | 2.13
332.9 K | 1.91
342.9 K | 1.71
353 K | 1.54

C#CCCCCC [1-heptyne] + CCCCC[n+]1ccccc1.O=S(=O)([N-]S(=O)(=O)C(F)(F)F)C(F)(F)F
Details | activity coefficient
302.8 K | 4.17
313.6 K | 4
323.4 K | 3.87
333.3 K | 3.74
343.3 K | 3.58
353.3 K | 3.42

C1CCCCC1 [cyclohexane] + CCCC[n+]1ccccc1.O=S(=O)([N-]S(=O)(=O)C(F)(F)F)C(F)(F)F
Details | activity coefficient
302.9 K | 9.66
312.4 K | 8.64
323.2 K | 7.88
333.2 K | 6.7
343.3 K | 5.61
353.4 K | 4.72

CCCO [propan-1-ol] + CC[n+]1ccccc1.O=S(=O)([N-]S(=O)(=O)C(F)(F)F)C(F)(F)F
Details | activity coefficient
302.5 K | 3.56
313.1 K | 3.18
323 K | 2.85
332.9 K | 2.57
342.9 K | 2.29
353 K | 2.06

Cc1ccccc1 [toluene] + CC[n+]1ccccc1.O=S(=O)([N-]S(=O)(=O)C(F)(F)F)C(F)(F)F
Details | activity coefficient
303.6 K | 2.08
313.1 K | 2.09
323.2 K | 2.1
333.2 K | 2.11
343 K | 2.12
353.3 K | 2.13

CCCCC [pentane] + CC[n+]1ccccc1.O=S(=O)([N-]S(=O)(=O)C(F)(F)F)C(F)(F)F
Details | activity coefficient
302.7 K | 5.79
313.3 K | 4.5
323 K | 3.59
333 K | 2.92
342.9 K | 2.36
352.9 K | 1.95

CCCCCCC [heptane] + CCCCC[n+]1ccccc1.O=S(=O)([N-]S(=O)(=O)C(F)(F)F)C(F)(F)F
Details | activity coefficient
303.2 K | 16.5
312.7 K | 14.6
323.4 K | 12.6
333.3 K | 11
343.3 K | 9.35
353.3 K | 7.98

c1ccccc1 [benzene] + CC[n+]1ccccc1.O=S(=O)([N-]S(=O)(=O)C(F)(F)F)C(F)(F)F
Details | activity coefficient
302.6 K | 1.5
313 K | 1.49
323.2 K | 1.47
333.1 K | 1.43
343 K | 1.39
353.1 K | 1.36

CCc1ccccc1 [ethylbenzene] + CC[n+]1ccccc1.O=S(=O)([N-]S(=O)(=O)C(F)(F)F)C(F)(F)F
Details | activity coefficient
303.4 K | 3.34
313.1 K | 3.36
323.2 K | 3.37
333.1 K | 3.39
343 K | 3.4
353.1 K | 3.41

C#CCCC [1-pentyne] + CC[n+]1ccccc1.O=S(=O)([N-]S(=O)(=O)C(F)(F)F)C(F)(F)F
Details | activity coefficient
302.5 K | 3.2
313.2 K | 3
323 K | 2.73
333 K | 2.52
342.9 K | 2.23
353.1 K | 2.03

C=CCCCCCCCC [1-decene] + CC[n+]1ccccc1.O=S(=O)([N-]S(=O)(=O)C(F)(F)F)C(F)(F)F
Details | activity coefficient
302.9 K | 85.8
313.2 K | 77.2
323.2 K | 70
332.8 K | 62.7
342.9 K | 54.5
353 K | 46.9

CCO [ethanol] + CCCC[n+]1ccccc1.O=S(=O)([N-]S(=O)(=O)C(F)(F)F)C(F)(F)F
Details | activity coefficient
302.5 K | 2.67
313.4 K | 2.26
323.1 K | 2.02
333.1 K | 1.8
343.1 K | 1.61
352.9 K | 1.45

CCCCC [pentane] + CCCC[n+]1ccccc1.O=S(=O)([N-]S(=O)(=O)C(F)(F)F)C(F)(F)F
Details | activity coefficient
302.8 K | 5.66
312.4 K | 4.83
323.2 K | 3.92
333 K | 3.44
343.4 K | 2.66
353.4 K | 2.24

CCCCCCC [heptane] + CCCC[n+]1ccccc1.O=S(=O)([N-]S(=O)(=O)C(F)(F)F)C(F)(F)F
Details | activity coefficient
302.8 K | 21.8
312.4 K | 19.4
323.2 K | 16.8
333.2 K | 13.8
343.3 K | 11.4
353.4 K | 9.35

Cc1cccc(C)c1 [1,3-dimethylbenzene] + CC[n+]1ccccc1.O=S(=O)([N-]S(=O)(=O)C(F)(F)F)C(F)(F)F
Details | activity coefficient
302.8 K | 3.07
313.2 K | 3.09
323.2 K | 3.1
333.1 K | 3.11
343 K | 3.12
353.1 K | 3.13

C#CCCCCCC [1-octyne] + CCCC[n+]1ccccc1.O=S(=O)([N-]S(=O)(=O)C(F)(F)F)C(F)(F)F
Details | activity coefficient
302.6 K | 8.1
313.4 K | 7.82
323.2 K | 7.6
333.1 K | 7.34
343.1 K | 7.05
353.1 K | 6.8

Cc1ccc(C)cc1 [1,4-dimethylbenzene] + CCCCC[n+]1ccccc1.O=S(=O)([N-]S(=O)(=O)C(F)(F)F)C(F)(F)F
Details | activity coefficient
303.1 K | 1.74
312.7 K | 1.79
323.5 K | 1.81
333.4 K | 1.84
343.3 K | 1.87
353.3 K | 1.91

CCCCCCCCC [nonane] + CCCC[n+]1ccccc1.O=S(=O)([N-]S(=O)(=O)C(F)(F)F)C(F)(F)F
Details | activity coefficient
303.1 K | 52.3
312.6 K | 50
323.3 K | 45.6
333.3 K | 38.6
343.3 K | 33.3
353.4 K | 28.1

C#CCCC [1-pentyne] + CCCCC[n+]1ccccc1.O=S(=O)([N-]S(=O)(=O)C(F)(F)F)C(F)(F)F
Details | activity coefficient
302.8 K | 2.01
313.5 K | 1.88
323.4 K | 1.75
333.3 K | 1.62
343.2 K | 1.5
353.4 K | 1.39

C=CCCCCCCCC [1-decene] + CCCCC[n+]1ccccc1.O=S(=O)([N-]S(=O)(=O)C(F)(F)F)C(F)(F)F
Details | activity coefficient
303.1 K | 26.4
312.6 K | 25.1
322.6 K | 23.8
333.4 K | 22.1
343.4 K | 20.6
353.4 K | 19.3

C1CCCCC1 [cyclohexane] + CC[n+]1ccccc1.O=S(=O)([N-]S(=O)(=O)C(F)(F)F)C(F)(F)F
Details | activity coefficient
302.8 K | 11.4
313.3 K | 9.56
323.1 K | 8.04
333 K | 6.76
342.9 K | 5.63
353 K | 4.65
